Data published in patent US10774051B2, “6-membered heterocyclic derivatives and pharmaceutical composition comprising the same” (Shionogi & Co., Ltd., priority 2015, dated 2020).
Like-named read-outs stand apart in the source and are kept apart here.

Molecular target: human P2X7 receptor (Homo sapiens, UniProt Q99572, R270H/Y155H)
Assay: Evaluation of human P2X7 receptor inhibitory activity (Yo-Pro uptake, BzATP stimulation, FLIPR TETRA)
Assay type: cell-based
Settings: 1321N1 cells stably expressing human P2X7 receptor, BzATP stimulation, Yo-Pro uptake
Experimental: Stably expressing cell line (1321N1 cell transfected with the human P2X7 receptor gene (GenBank accession number NM_002562.5 including T606C and G952A SNP)) was used. The cells were seeded in a 384-well microtiter plate at a concentration of 8000 cells/well and cultured in the medium (10% fetal bovine serum, 25 mM HEPES, 1% penicillin and streptomycin in DMEM) for one day at 37° C. under 5% carbon dioxide atmosphere. After replacing with 20 μL of the HBSS buffer (20 mM HEPES, 55.6 mM D-glucose, 1×HBSS(−), pH7.4-7.5), 15 μL of 17.3 μM Yo-Pro solution in the HBSS buffer was added. The plate was placed in high-throughput cellular screening system FLIPR TETRA (Molecullar Devices, LLC.) and 15 μL of 130 μM BzATP solution in the HBSS buffer was added. Measurement of fluorescence intensity by FLIPR TETRA was started. After eight minutes, 15 μL of DMSO solutions containing different concentrations of the compound of the present invention as prepared by dilution with the HBSS buffer were dispensed to each well through the built-in automatic dispenser, and the measurement of fluorescence intensity was continued for 20 minutes. […] Changing values of fluorescence intensity by the compound of the present invention were calculated by difference between maximum and minimum fluorescence intensity for 20 minutes. Inhibition ratios (%) were calculated from the following equation:
[formula] IC50 was calculated using logistic approximation.

[1] = read-out: IC50 (antagonistic activity for the human P2X7 receptor), class symbol
[2] = read-out: IC50 (antagonistic activity for the human P2X7 receptor)

Structure (SMILES): COc1cn(Cc2ccccc2)c(Nc2cc(C(C)C)ccc2C)nc1=O [Compound I-0143]
- IC50 [1]: 10 to 100 nM

Structure (SMILES): COc1cn(Cc2ccccc2)c(Nc2cc(Br)ccc2Cl)nc1=O [Compound I-0144]
- IC50 [1]: 100 to 500 nM

Structure (SMILES): COc1cn(Cc2ccccc2)c(Nc2cc(Cl)cc(Cl)c2Cl)nc1=O [Compound I-0145]
- IC50 [1]: 10 to 100 nM

Structure (SMILES): COc1cn(Cc2ccccc2)c(Nc2cc(C)ccc2Cl)nc1=O [Compound I-0146]
- IC50 [1]: 10 to 100 nM

Structure (SMILES): COc1ccc(Nc2nc(=O)c(OC)cn2Cc2ccccc2)c(C)c1 [Compound I-0147]
- IC50 [1]: 10 to 100 nM

Structure (SMILES): Cc1ccc(N2CCCS2(=O)=O)cc1Nc1nc(=O)c(F)cn1Cc1ccccc1 [Compound I-0148]
- IC50 [1]: 10 to 100 nM

Structure (SMILES): Cc1c(Cl)cccc1Nc1nc(=O)c(OCc2ccccc2)cn1Cc1ccccc1 [Compound I-0149]
- IC50 [2]: 26 nM

Structure (SMILES): COC(=O)c1ccc(C)c(Nc2nc(=O)c(OC)cn2Cc2ccccc2)c1 [Compound I-0150]
- IC50 [1]: 100 to 500 nM

Structure (SMILES): COc1ccc(Cl)c(Nc2nc(=O)c(OC)cn2Cc2ccccc2)c1 [Compound I-0152]
- IC50 [1]: 100 to 500 nM

Structure (SMILES): Cc1cccc(C)c1Nc1nc(=O)c(F)cn1Cc1ccccc1 [Compound I-0153]
- IC50 [1]: 10 to 100 nM

Structure (SMILES): COc1cn(Cc2ccccc2)c(Nc2cc(Cl)c(Cl)cc2Cl)nc1=O [Compound I-0154]
- IC50 [1]: 100 to 500 nM

Structure (SMILES): COc1cn(Cc2ccccc2)c(Nc2cc([N+](=O)[O-])ccc2C)nc1=O [Compound I-0155]
- IC50 [1]: 500 to 1000 nM

Structure (SMILES): COc1cn(Cc2ccccc2)c(Nc2cc(O)ccc2Cl)nc1=O [Compound I-0156]
- IC50 [1]: 100 to 500 nM

Structure (SMILES): CCc1ccccc1Nc1nc(=O)c(F)cn1Cc1ccccc1 [Compound I-0157]
- IC50 [1]: 10 to 100 nM

Structure (SMILES): Cc1cccc(Nc2nc(=O)c(Cl)cn2Cc2ccccc2)c1C [Compound I-0158]
- IC50 [1]: 10 to 100 nM

Structure (SMILES): CCc1cc(Cl)ccc1Nc1nc(=O)c(OC)cn1Cc1ccccc1 [Compound I-0161]
- IC50 [1]: 10 to 100 nM

Structure (SMILES): COc1cn(Cc2ccc(F)cc2)c(Nc2cc(C)c(C)cc2C)nc1=O [Compound I-0162]
- IC50 [1]: < 10 nM

Structure (SMILES): CCc1cc2c(cc1Nc1nc(=O)c(OC)cn1Cc1ccc(F)cc1)CCC2 [Compound I-0163]
- IC50 [1]: < 10 nM

Structure (SMILES): CCc1cc2c(cc1Nc1nc(=O)c(OC)cn1Cc1cccc(Cl)c1)CCC2 [Compound I-0164]
- IC50 [1]: < 10 nM

Structure (SMILES): COc1cn(Cc2cccc(Cl)c2)c(Nc2cc(C)c(C)cc2C)nc1=O [Compound I-0165]
- IC50 [1]: < 10 nM

Structure (SMILES): COc1cn(Cc2ccc(F)c(Cl)c2)c(Nc2cccc(Cl)c2C)nc1=O [Compound I-0166]
- IC50 [1]: < 10 nM

Structure (SMILES): COc1cn(Cc2ccccc2F)c(Nc2cc(C)c(Cl)cc2C)nc1=O [Compound I-0167]
- IC50 [1]: 10 to 100 nM

Structure (SMILES): COc1cn(Cc2cccc(F)c2)c(Nc2cc(C)c(Cl)cc2C)nc1=O [Compound I-0168]
- IC50 [1]: < 10 nM

Structure (SMILES): COc1cn(Cc2ccc(F)cc2)c(Nc2cc(C)c(Cl)cc2C)nc1=O [Compound I-0169]
- IC50 [1]: < 10 nM

Structure (SMILES): COc1cn(Cc2ccccc2Cl)c(Nc2cc(C)c(Cl)cc2C)nc1=O [Compound I-0170]
- IC50 [1]: 100 to 500 nM

Structure (SMILES): COc1cn(Cc2ccc(Cl)cc2)c(Nc2cc(C)c(Cl)cc2C)nc1=O [Compound I-0171]
- IC50 [1]: 10 to 100 nM

Structure (SMILES): COc1cn(Cc2cccc(Cl)c2)c(Nc2cc(C)c(Cl)cc2C)nc1=O [Compound I-0172]
- IC50 [1]: 10 to 100 nM

Structure (SMILES): COc1cn(Cc2ccccc2)c(N[C@@H]2CCCc3ccccc32)nc1=O [Compound I-0173]
- IC50 [1]: 100 to 500 nM

Structure (SMILES): CCc1ccc(Cl)cc1Nc1nc(=O)c(OC)cn1Cc1ccccc1 [Compound I-0175]
- IC50 [1]: 10 to 100 nM

Structure (SMILES): COc1cn(Cc2ccccc2F)c(Nc2cc(C)c(C)cc2C)nc1=O [Compound I-0176]
- IC50 [2]: 13 nM

Structure (SMILES): COc1cn(Cc2cccc(F)c2)c(Nc2cc(C)c(C)cc2C)nc1=O [Compound I-0177]
- IC50 [1]: < 10 nM

Structure (SMILES): CCc1cc2c(cc1Nc1nc(=O)c(OC)cn1Cc1ccccc1F)CCC2 [Compound I-0178]
- IC50 [2]: 21 nM

Structure (SMILES): CCc1cc2c(cc1Nc1nc(=O)c(OC)cn1Cc1cccc(F)c1)CCC2 [Compound I-0179]
- IC50 [1]: < 10 nM

Structure (SMILES): COc1cn(Cc2ccccc2)c(Nc2cc(CO)ccc2C)nc1=O [Compound I-0180]
- IC50 [1]: 10 to 100 nM

Structure (SMILES): COc1cn(Cc2ccccc2)c(Nc2cc(C(N)=O)ccc2Cl)nc1=O [Compound I-0181]
- IC50 [1]: 500 to 1000 nM
